Results on 4 compounds are retold here after patent US6143325A, “Nefazodone dosage form” (priority 1999, dated 2000).

The structures appear in SMILES notation. Where a name gives a salt, the structure may show the parent alone.

Data set [1] deals with cytochrome P450 (CPY) 3A4. Particulars: cited from earlier work.
A further data set concerns CYP2D6. Particulars: cited from earlier work.
The subject of another data set is rodents. Particulars: in vivo; cited from earlier work.
In another data set the test system is rats. Particulars: mediated through 5-HT2C or 5HT2B receptors; cited from earlier work.
The next data set concerns humans. As to conditions: in vivo; cited from earlier work.
For data set [2] the following is noted: cited from earlier work.
For data set [3] the following is noted: cited from earlier work. The source holds these as a separate data set.
In data set [4] the test system is serotonin 5-HT2 receptors. As to conditions: in vivo; cited from earlier work.
The test system of another data set is serotonin re-uptake. Particulars: in vivo; cited from earlier work.
The test system of a further data set is monoamine oxidase. As to conditions: cited from earlier work.
The conditions of data set [5]: relative to tricyclic antidepressants; cited from earlier work.
For data set [6] the following is noted: clinically effective doses of up to 450 mg three times a day; cited from earlier work.
For data set [7] the following is noted: USP criteria; cited from earlier work.
Data set [8] is described as follows: nefazodone and metabolite pharmacokinetics in human volunteers: ER v. IR. Particulars: plasma, po.

In the case of `O=c1[nH]n(CCCN2CCN(c3cccc(Cl)c3)CC2)c(=O)n1CCOc1ccccc1` [Dione], the “metabolism by CYP3A4” value in [1] is reported as “responsible for the further metabolism”.
With `Clc1cccc(N2CCNCC2)c1` [mCPP, m-chlorophenylpiperazine], the “metabolism by CYP2D6” value with CYP2D6 is “responsible for the metabolism of mCPP”. In addition, the effects in rodents result in the data set with rodents is “anxiogenic-like properties, causes hypoactivity, hypophagia, oral dyskinesia, penile erection and hyperthermia”. Besides, the hypoglycemic effect result in the data set on rats is “dose-dependent hypoglycemic effect”. In the data set with humans, the effects in humans entry was “increase anxiety in humans (and can cause panic attacks), may precipitate migraine attacks in those susceptible to such attacks, can disrupt sleep, be hypophagic in humans also and may have psychotogenic effects”.
Turning to `CC(O)c1nn(CCCN2CCN(c3cccc(Cl)c3)CC2)c(=O)n1CCOc1ccccc1` (centres unmarked) [hydroxy-nef, hydroxynefazodone], in [1], the “metabolism by CYP3A4” value was “responsible for the further metabolism”.
A word on the Tmax: it is the time from dosing to the highest level. In the case of `CCc1nn(CCCN2CCN(c3cccc(Cl)c3)CC2)c(=O)n1CCOc1ccccc1` [Nefazodone, 2-[3-[4-(3-chlorophenyl)-1-piperazinyl]-propyl-]5-ethyl-2,4-dihydro-4-(2-phenoxy-ethyl)-3H-1,2,4-triazol-3-one hydrochloride], the first-pass metabolism result in data set [2] (in vivo) was “significant first-pass metabolism”. For the same compound, the “kinetics (dose proportionality)” value in [2] (plasma concentrations v. dose) was “non-linear kinetics”. Besides, the “dissociation constant (pKa)” value in data set [3] is 6.4. In addition, in data set [4], the “effect on serotonin 5-HT2 receptors” value is recorded as “blocks serotonin 5-HT2 receptors”. In addition, the serotonin re-uptake inhibition entry in the data set with serotonin re-uptake was “reversibly inhibits serotonin re-uptake”. The monoamine oxidase inhibition result in the data set on monoamine oxidase was “does not inhibit monoamine oxidase”. In addition, the “anticholinergic, antihistamine, alpha-adrenergic and sedative activity” value in data set [5] is “decreased anticholinergic, antihistamine, alpha-adrenergic and sedative activity”. Besides, in data set [1], the “inhibition of CYP3A4” value is on record as “inhibits cytochrome P450 (CPY) 3A4” and the “metabolism by CYP3A4” value is on record as “metabolized by”. Besides, the tolerability result in data set [6] is “well-tolerated”. Also, the solubility in water entry in data set [7] is on record as “sparingly soluble”. Moreover, the “inhibition of CYP2D6” value in the data set on CYP2D6 is reported as “weak inhibitor of CYP2D6”. In addition, the Tmax in data set [8] (100 mg) is 2 h. Further, the time to peak (Tmax) in data set [8] (200 mg) was determined as 5 h.
